In patent US20170008921A1, “C-3 NOVEL TRITERPENONE WITH C-28 REVERSE AMIDE DERIVATIVES AS HIV INHIBITORS” (HETERO RESEARCH FOUNDATION, priority 2015, published 2017):

Experiments:
[1] = Cyto-toxicity (MTT assay); type: cell-based
Description: On day 1 calculate the number of cells required for the assay and seed 3×10^4 cells in 200 μl per well. Weigh the compound and dissolve it in DMSO to get 10 mM stock which is further diluted to 3 mM and 1 mM. […] Add DMSO to controls in a way to obtain final concentration of solvent that is not greater than 1%. Incubate for 4 days in 5% CO2 incubator at 37° C. On day 4, 100 μl of medium was removed from each well without disturbing the cells. Add 10 μl of MTT reagent and incubate for 4 hours at 5% CO2 incubator at 37° C. for formation of crystals. Add 200 μl of 0.1N acidic isopropanol to dissolve the crystals and read the plate at 590 nm. The values are mentioned in below Table-3 and Table-3A.

[2] = Single dose oral pharmacokinetic study; type: in vivo; conditions: mouse, Mice oral PK @30 mg/kg, plasma, vehicle 10% Solutol+20% PEG; for AUC(0-t): read-out: AUC0-t; for Cmax: read-out: Cmax
Description: The test item was administered through oral route to animals (rat/mice) at 30 mg/kg dose in a suitable vehicle (10% Solutol+20% PEG) at 10 ml/kg dose volume. Blood samples (˜50 μL at each time point) were collected from retro-orbital plexus using K3 EDTA as anticoagulant in eppendorf tubes at defined time intervals 30 minutes, 1 hour, 2 hour, 4 hour, 8 hour, 24 hour & 48 hour under light ether anaesthesia. The samples were centrifuged at 3500×g to separate plasma and stored at −80° C. until analysis. Plasma 25 μl for Mice were processed as per described in sample preparation.
Standard solutions of the test compound 1 mg/mL solutions were prepared in DMSO and further dilutions were made in methanol. […] To the test compound plasma extraction was carried out using Acetonitrile precipitation. After reconstitution with solvent (50% Acetonitrile in Buffer) samples were analyzed by LCMSMS to get the concentrations to calculate PK Parameters.

| SMILES | viability at 4 days, 0.01 µM [1] | viability at 4 days, 0.1 µM [1] | viability at 4 days, 1 µM [1] | AUC(0-t) [2] | Cmax [2] |
| --- | --- | --- | --- | --- | --- |
| CC(C)C1=C2[C@H]3CC[C@@H]4[C@@]5(C)CC[C@H](OC(=O)[C@H]6C[C@@H](C(=O)O)C6(C)C)C(C)(C)[C@@H]5CC[C@@]4(C)[C@]3(C)CC[C@@]2(NC(=O)C(C)(C)NC(=O)C2(c3ccc(Cl)cc3)CC2)CC1=O [Example 2, (1R,3S)-3-((((3aR,5aR,5bR,7aR,9S,11aR,11bR,13aS)-3a-(2-(1-(4-chlorophenyl)cyclopropane-1-carboxamido)-2-methylpropanamido)-1-isopropyl-5a,5b,8,8, 11a-pentamethyl-2-oxo-3,3a,4,5,5a,5b,6,7,7a,8,9,10,11,11a,11b,12,13,13a-octadecahydro-2H-cyclopenta[a]chrysen-9-yl)oxy)carbonyl)-2,2-dimethylcyclobutane-1-carboxylic acid] | 42% | 9% | 8% | 166 µg·h/mL | 13200 ng/mL |
| CC(C)C1=C2[C@H]3CC[C@@H]4[C@@]5(C)CC[C@H](OC(=O)[C@H]6C[C@@H](C(=O)O)C6(C)C)C(C)(C)[C@@H]5CC[C@@]4(C)[C@]3(C)CC[C@@]2(NC(=O)C(C)(C)NC(=O)c2ccccc2)CC1=O [Example 3, (1R,3S)-3-((((3aR,5aR,5bR,7aR,9S,11aR,11bR,13aS)-3a-(2-benzamido-2-methylpropanamido)-1-isopropyl-5a,5b,8,8,11a-pentamethyl-2-oxo-3,3a,4,5,5a, 5b,6,7,7a,8,9,10,11,11a,11b,12,13,13a-octadecahydro-2H-cyclopenta[a]chrysen-9-yl)oxy)carbonyl)-2,2-dimethylcyclobutane-1-carboxylic acid] | 32% | 13% | 7% | 545 µg·h/mL | 29600 ng/mL |
| CC(C)C1=C2[C@H]3CC[C@@H]4[C@@]5(C)CC[C@H](OC(=O)[C@H]6C[C@@H](C(=O)O)C6(C)C)C(C)(C)[C@@H]5CC[C@@]4(C)[C@]3(C)CC[C@@]2(NC(=O)C(C)(C)NC(=O)c2ccc(Cl)c(Cl)c2)CC1=O [Example 4, (1R,3S)-3-((((3aR,5aR,5bR,7aR,9S,11aR,11bR,13aS)-3a-(2-(3,4-dichlorobenzamido)-2-methylpropanamido)-1-isopropyl-5a,5b,8,8,11a-pentamethyl-2-oxo-3,3a,4,5,5a,5b,6,7,7a,8,9,10,11,11a,11b,12,13,13a-octadecahydro-2H-cyclopenta[a]chrysen-9-yl)oxy)carbonyl)-2,2-dimethylcyclobutane-1-carboxylic acid] | 20% | 12% | 9% | 185 µg·h/mL | 8840 ng/mL |
| CC(C)C1=C2[C@H]3CC[C@@H]4[C@@]5(C)CC[C@H](OC(=O)[C@H]6C[C@@H](C(=O)O)C6(C)C)C(C)(C)[C@@H]5CC[C@@]4(C)[C@]3(C)CC[C@@]2(NC(=O)C(C)(C)NC(=O)c2cnccn2)CC1=O [Example 5, (1R,3S)-3-((((3aR,5aR,5bR,7aR,9S,11aR,11bR,13aS)-1-isopropyl-5a,5b,8,8,11a-pentamethyl-3a-(2-methyl-2-(pyrazine-2-carboxamido)propanamido)-2-oxo-3,3a,4,5,5a,5b,6,7,7a,8,9,10,11,11a,11b,12,13,13a-octadecahydro-2H-cyclopenta[a]chrysen-9-yl)oxy)carbonyl)-2,2-dimethylcyclobutane-1-carboxylic acid] | 74% | 35% | 4% | 289 µg·h/mL | 26000 ng/mL |
| CC(C)C1=C2[C@H]3CC[C@@H]4[C@@]5(C)CC[C@H](OC(=O)[C@H]6C[C@@H](C(=O)O)C6(C)C)C(C)(C)[C@@H]5CC[C@@]4(C)[C@]3(C)CC[C@@]2(NC(=O)C(C)(C)NC(=O)c2ccc(N)nc2)CC1=O [Example 6, (1R,3S)-3-((((3aR,5aR,5bR,7aR,9S,11aR,11bR,13aS)-3a-(2-(6-aminonicotinamido)-2-methylpropanamido)-1-isopropyl-5a,5b,8,8,11a-pentamethyl-2-oxo-3,3a,4,5,5a,5b,6,7,7a,8,9,10,11,11a,11b,12,13,13a-octadecahydro-2H-cyclopenta[a]chrysen-9-yl)oxy)carbonyl)-2,2-dimethylcyclobutane-1-carboxylic acid] | 60% | 19% | 4% | 100 µg·h/mL | 11100 ng/mL |
| Cc1cnc(C(=O)NC(C)(C)C(=O)N[C@@]23CC[C@]4(C)[C@H](CC[C@@H]5[C@@]6(C)CC[C@H](OC(=O)[C@H]7C[C@@H](C(=O)O)C7(C)C)C(C)(C)[C@@H]6CC[C@]54C)C2=C(C(C)C)C(=O)C3)cn1 [Example 7, (1R,3S)-3-((((3aR,5aR,5bR,7aR,9S,11aR,11bR,13aS)-1-isopropyl-5a,5b,8,8,11a-pentamethyl-3a-(2-methyl-2-(5-methylpyrazine-2-carboxamido)propanamido)-2-oxo-3,3a,4,5,5a,5b,6,7,7a,8,9,10,11,11a,11b,12,13,13a-octadecahydro-2H-cyclopenta[a]chrysen-9-yl)oxy)carbonyl)-2,2-dimethylcyclobutane-1-carboxylic acid] | 28% | 9% | 0% | 517 µg·h/mL | 41900 ng/mL |
| CC(C)C1=C2[C@H]3CC[C@@H]4[C@@]5(C)CC[C@H](OC(=O)[C@H]6C[C@@H](C(=O)O)C6(C)C)C(C)(C)[C@@H]5CC[C@@]4(C)[C@]3(C)CC[C@@]2(NC(=O)C(C)(C)NC(=O)CN2CCCCC2)CC1=O [Example 10, (1R,3S)-3-((((3aR,5aR,5bR,7aR,9S,11aR,11bR,13aS)-1-isopropyl-5a,5b,8,8,11a-pentamethyl-3a-(2-methyl-2-(2-(piperidin-1-yl)acetamido)propan amido)-2-oxo-3,3a,4,5,5a,5b,6,7,7a,8,9,10,11,11a,11b,12,13,13a-octadecahydro-2H-cyclopenta[a]chrysen-9-yl)oxy)carbonyl)-2,2-dimethylcyclobutane-1-carboxylic acid] | 67% | 1% | 0% | 69.8 µg·h/mL | 9790 ng/mL |
| CC(C)C1=C2[C@H]3CC[C@@H]4[C@@]5(C)CC[C@H](OC(=O)[C@H]6C[C@@H](C(=O)O)C6(C)C)C(C)(C)[C@@H]5CC[C@@]4(C)[C@]3(C)CC[C@@]2(NC(=O)C(C)(C)NC(=O)c2ccc3[nH]cnc3c2)CC1=O [Example 12, (1R,3S)-3-((((3aR,5aR,5bR,7aR,9S,11aR,11bR,13aS)-3a-(2-(1H-benzo[d]imidazole-5-carboxamido)-2-methylpropanamido)-1-isopropyl-5a,5b,8,8,11a-pentamethyl-2-oxo-3,3a,4,5,5a,5b,6,7,7a,8,9,10,11,11a,11b,12,13,13a-octadecahydro-2H-cyclopenta[a]chrysen-9-yl)oxy)carbonyl)-2,2-dimethylcyclobutane-1-carboxylic acid] | 42% | 7% | 3% | 61.3 µg·h/mL | 8540 ng/mL |
| CC(C)C1=C2[C@H]3CC[C@@H]4[C@@]5(C)CC[C@H](OC(=O)[C@H]6C[C@@H](C(=O)O)C6(C)C)C(C)(C)[C@@H]5CC[C@@]4(C)[C@]3(C)CC[C@@]2(NC(=O)C(C)(C)NCc2ccc(Cl)cc2)CC1=O [Example 68, (1R,3S)-3-((((3aR,5aR,5bR,7aR,9S,11aR,11bR,13aS)-3a-(2-((4-chlorobenzyl)amino)-2-methylpropanamido)-1-isopropyl-5a,5b,8,8,11a-pentamethyl-2-oxo-3,3a,4,5,5a,5b,6,7,7a,8,9,10,11,11a,11b,12,13,13a-octadecahydro-2H-cyclopenta[a]chrysen-9-yl)oxy)carbonyl)-2,2-dimethylcyclobutane-1-carboxylic acid] |  |  |  | 272 µg·h/mL | 20000 ng/mL |
| CC(C)C1=C2[C@H]3CC[C@@H]4[C@@]5(C)CC[C@H](OC(=O)[C@H]6C[C@@H](C(=O)O)C6(C)C)C(C)(C)[C@@H]5CC[C@@]4(C)[C@]3(C)CC[C@@]2(NC(=O)C(C)(C)NC(=O)c2ccc(Cl)cn2)CC1=O [Example 70, (1R,3S)-3-((((3aR,5aR,5bR,7aR,9S,11aR,11bR,13aS)-3a-(2-(5-chloropicolinamido)-2-methylpropanamido)-1-isopropyl-5a,5b,8,8,11a-pentamethyl-2-oxo-3,3a,4,5,5a,5b,6,7,7a,8,9,10,11,11a,11b,12,13,13a-octadecahydro-2H-cyclopenta[a]chrysen-9-yl)oxy)carbonyl)-2,2-dimethylcyclobutane-1-carboxylic acid] |  |  |  | 881 µg·h/mL | 36600 ng/mL |
